We go through 2 compounds from US4698350A, “1-ethyl-6-fluoro-1,4-dihydro- 7-(2,6-dimethyl-4-pyridinyl)-4-oxo-3-quinolinecarboxylic acid and antibacterial use thereof” (Sterling Drug Inc., priority 1984, dated 1987).

Values after ≈ are worked out from the molar mass of the structure shown. Where two headings read alike, the source gives them in different places. Where only a bound is given, the exact number is not on record here.

For test [1], the system named is P. aeruginosa. As to the kind of experiment: In vitro MIC/MBC summary (Table II). The format is cell-based, Pseudomonas aeruginosa. As to the method: Win 52,522 and Win 35,439 were solubilized in 0.1 ml of 0.5 N NaOH/mg of compound and diluted in sterile distilled water to 160 mcg/ml. Vancomycin and methicillin were solubilized in sterile distilled water to 1250 mcg/ml of base compound. The stock solutions were sterilized by filtration through membrane filters with a 0.45 μm pore size.
The bacterial cultures listed in Table I (hereinbelow) were grown overnight at 37° C. in MHB for all cultures except the Streptococcus strains. These were grown in BHI+10% NHS. The overnight broth cultures were adjusted to an optical density of 0.10 (650 nm, B L Spectronic 20) in sterile distilled water and subsequently diluted to 6.7×10^6 cells/ml in MHB or BHI+1% NHS.
Serial two-fold dilutions of the compound solutions were prepared in MHB (or in BHI+1% NHS for tests with Streptococci) and dispensed into 96-well microtiter trays in a volume of 0.1 ml/well using a Sandy Springs (Bellco Glass Co.) dispenser. The trays were then inoculated with 0.0015 ml of a suspension containing 6.7×10^6 cells/ml of the appropriate inoculum using a MIC-2000 inoculator (Dynatech Corp.) resulting in a final inoculum of approximately 1×10^4 cells/well or 1×10^5 cells/ml. The trays were incubated at 37° C. for 18-20 hours and the minimal inhibitory concentration (MIC), defined as the lowest concentration of compound to inhibit visible bacterial growth, was recorded.
After the MIC values were recorded, the contents in the microtiter trays were thoroughly mixed on a Bellco Mini-orbital Shaker (Bellco Glass Co.) for 3 min. at a setting of 8. A portion (0.0015 ml) from each well was then transferred via an MIC-2000 inoculator to plates containing MHA or BHI agar+10% NHS. The plates were incubated at 37° C. for 18-20 hrs. The minimal bactericidal concentration (MBC), defined as the lowest concentration of compound that prevented the formation of a recognizable colony on the agar surface, was recorded.

For test [2], the system named is A. viscosus. As to the kind of experiment: Agar dilution MIC, anaerobic microorganisms. The format is cell-based. Conditions: Actinomyces viscosus, 48 h; A. viscosus; read-out: MIC. As to the method:
(§1) 1. Maintenance. Prior to use, all strains were maintained in the lyophilized state. During the study, cultures were examined on blood agar basal medium supplemented with 5.0% (v/v) defibrinated rabbit blood. Culture transfer was accomplished weekly with all cultures being incubated in an anaerobic atmosphere (GasPak jar; BBL).
(§2) 2. Agar Medium. The basal test medium consisted of trypticase soy agar (40 g), yeast extract (1 g), glucose (2 g) and 960 ml of distilled water pH 7.2. [Mashimo et al., J. Clin. Micro. 17, 187-191 (1983)]. Subsequent to sterilization and cooling to 50° C., the medium was supplemented with 4% (v/v) defibrinated rabbit blood and 0.5 μg/ml menadione (Vitamin K3) The agent under evaluation was also added at this time to the concentration desired. Subsequent to pouring of the plates, they were permitted to dry at 4° C. for 24 hr.
(§3) 3. Determination of Agent MIC. The minimal inhibitory concentration (MIC) of the various test agents was determined using an agar dilution technique. Agents and appropriate reference compounds were added to achieve a series of concentrations ranging between 32 μg/ml and 0.007 μg/ml. The inocula were prepared from 96-hr. cultures grown on the maintenance medium. Subsequent to a purity evaluation, colonies were removed and suspended in trypticase soy broth supplemented with 5 μg/ml menadione and 2% lysed rabbit blood filtrate to achieve an OD650 of 0.1 (this corresponded to approximately 10^8 cells/ml). Cultures were inoculated aerobically on the modified trypticase soy blood agar plates by use of a Steer's replicator (which delivers about 10^5 cells per spot). The plates were allowed to dry for a time not exceeding 30 min. and then incubated at 37° C. under an atmosphere of […], 10% H2 and 5% CO2 maintained in an anaerobic chamber (Coy Manufacturing Co.) for 48 hr. The MIC was defined as the lowest concentration completely inhibiting growth.
(§4) Tetracycline stock solutions (1 mg/ml) were made subsequent to dissolution in water. Stock solutions (1 mg/ml) of the remaining test compounds were made subsequent to dissolution in 1/10 N NaOH.

Test [3] deals with Campylobacter sputorum. As to the kind of experiment: Agar dilution MIC, anaerobic microorganisms. The following applies: 48 h. Type of test: cell-based. The protocol:
as §1, §2, §3, §4

The test system of test [4] is B. gingivalis. As to the kind of experiment: Agar dilution MIC, anaerobic microorganisms. Type of test: cell-based. Conditions: Porphyromonas gingivalis, 48 h; B. gingivalis; read-out: MIC. As to the method:
as §1, §2, §3, §4

The test system of test [5] is B. melaninogenicus. The experiment in a line: Agar dilution MIC, anaerobic microorganisms. Conditions: 48 h; B. melaninogenicus; read-out: MIC. The format is cell-based. The protocol:
as §1, §2, §3, §4

In test [6] the test system is F. polymorphum. As to the kind of experiment: Agar dilution MIC, anaerobic microorganisms. Type of test: cell-based. The following applies: 48 h; F. polymorphum; read-out: MIC. As to the method:
as §1, §2, §3, §4

The subject of test [7] is Capnocytophaga suptigena. The experiment in a line: Agar dilution MIC, anaerobic microorganisms. Type of test: cell-based. Conditions: 48 h; Capnocytophaga suptigena; read-out: MIC. The protocol:
as §1, §2, §3, §4

The test system of test [8] is Eikenella corrodens. The experiment in a line: Agar dilution MIC, anaerobic microorganisms. The format is cell-based. Conditions: 48 h, read-out: MIC. As to the method:
as §1, §2, §3, §4

The test system of test [9] is F. nucleatum. As to the kind of experiment: Agar dilution MIC, anaerobic microorganisms. The format is cell-based. Conditions: Fusobacterium nucleatum, 48 h; F. nucleatum; read-out: MIC. As to the method:
as §1, §2, §3, §4

Test [10] deals with A. actinomycetemcomitans. As to the kind of experiment: Agar dilution MIC, anaerobic microorganisms. The format is cell-based. The following applies: Aggregatibacter actinomycetemcomitans, 48 h; A. actinomycetemcomitans; read-out: MIC. The protocol:
as §1, §2, §3, §4

The test system of test [11] is Wolinella recta. As to the kind of experiment: Agar dilution MIC, anaerobic microorganisms. The format is cell-based. The following applies: Campylobacter rectus, 48 h. As to the method:
as §1, §2, §3, §4

Test [12] concerns B. fragilis. The experiment in a line: Agar dilution MIC, anaerobic microorganisms. The format is cell-based. Conditions: Bacteroides fragilis, 48 h; B. fragilis; read-out: MIC. The protocol: as §1, §2, §3, §4
For test [13], the system named is B. oralis. As to the kind of experiment: Agar dilution MIC, anaerobic microorganisms. The following applies: Hoylesella oralis, 48 h; B. oralis; read-out: MIC. The format is cell-based. The protocol: as §1, §2, §3, §4
Test [14] relates to B. intermedius. The experiment in a line: Agar dilution MIC, anaerobic microorganisms. Conditions: Prevotella intermedia, 48 h; B. intermedius; read-out: MIC. The format is cell-based. The protocol: as §1, §2, §3, §4
[15] abbreviates: Pseudomonas aeruginosa, 5 P. aeruginosa strains.
Where [16] appears, read: Pseudomonas aeruginosa, 5 P. aeruginosa strains, read-out: MBC 50%.
The mark [17] stands for this setting: Pseudomonas aeruginosa, 5 P. aeruginosa strains, read-out: MBC 90%.

Compound `CCn1cc(C(=O)O)c(=O)c2ccc(-c3cc(C)nc(C)c3)cc21` [Win 35,439, 1-ethyl-1,4-dihydro-7-(2,6-dimethyl-4-pyridinyl)-4-oxo-3-quinolinecarboxylic acid] registered an MIC50 in test [1] (setting [15]) of 16 µg/mL (≈ 49.6 µM). In test [1] (setting [15]), this compound showed an MIC90 of 16 µg/mL (≈ 49.6 µM). Besides, the minimum bactericidal concentration (MBC) in test [1] (setting [16]) and in test [1] (setting [17]) was over 16 µg/mL throughout. Besides, the MIC in [2] is 8 µg/mL (≈ 24.8 µM); in test [3], over 10 µg/mL; in test [4], over 10 µg/mL; in test [5] it was 8 µg/mL (≈ 24.8 µM); in [6], 4 µg/mL (≈ 12.4 µM); in test [7], 0.5 µg/mL (≈ 1.55 µM). Further, the MIC in test [8] was 2 µg/mL (≈ 6.2 µM); in [9], 4 µg/mL (≈ 12.4 µM); in [10], 0.25 µg/mL (≈ 0.776 µM); in test [11], 0.5 µg/mL (≈ 1.55 µM); in test [12], over 10 µg/mL; in [13], over 10 µg/mL. For the same compound, in [14], the MIC worked out at 0.25 µg/mL (≈ 0.776 µM).

As for `CCn1cc(C(=O)O)c(=O)c2cc(F)c(-c3cc(C)nc(C)c3)cc21` [Win 52,522, 1-ethyl-6-fluoro-1,4-dihydro-7-(2,6-dimethyl-4-pyridinyl)-4-oxo-3-quinolinecarboxylic acid], the MIC in [1] (setting [15]) was 4 to 16 µg/mL (≈ 11.8 to 47 µM); in test [2] it was 1 µg/mL (≈ 2.94 µM); in test [3] it was 8 µg/mL (≈ 23.5 µM); in test [4], 2 µg/mL (≈ 5.88 µM); in [5], 1 µg/mL (≈ 2.94 µM); in test [6] it was 0.5 µg/mL (≈ 1.47 µM). The MIC in test [7] is 0.06 µg/mL (≈ 0.176 µM); in test [8] it was 0.5 µg/mL (≈ 1.47 µM); in test [9], 0.5 µg/mL (≈ 1.47 µM); in test [10], 0.12 µg/mL (≈ 0.353 µM); in test [11] it was 0.12 µg/mL (≈ 0.353 µM); in [12], 4 µg/mL (≈ 11.8 µM). Moreover, the figures for the MIC in test [13] and in test [14] were 4 µg/mL (≈ 11.8 µM) and 0.06 µg/mL (≈ 0.176 µM), respectively. The MIC50 in test [1] (setting [15]) stood at 16 µg/mL (≈ 47 µM). The same compound displayed an MIC90 in test [1] (setting [15]) of 16 µg/mL (≈ 47 µM). For the same compound, the minimal bactericidal concentration (MBC) in test [1] (setting [16]) stood at 16 µg/mL (≈ 47 µM); in test [1] (setting [17]), 16 µg/mL (≈ 47 µM); in [1] (Pseudomonas aeruginosa, 5 P. aeruginosa strains, read-out: MBC Range) it was 16 µg/mL (≈ 47 µM). The “potency relative to Win 35,439” value in test [1] (in vitro, P. aeruginosa) is “similarly potent”.
